Where “and” joins values, the source holds several entries; their conditions need not be identical. Identical values can stand only once. Like-named read-outs stand apart in the source and are kept apart here. Ends that are not written are not given here.
Legend:
[1] = test system: human red blood cells (HRBCs); assay: Hemolytic assay on human red blood cells; format: cell-based; details: human red blood cells 5% (v/v) in PBS, 37 °C 1 h, OD 540 nm; for EC50: four-parameter logistic fit of mean of three independent experiments, '-' = hemolytic activity too low to calculate the EC50; for HRBC Hemolysis (hemolysis rate at 320 μg/mL): peptide 320 μg/mL (highest dose), PBS = 0%, mean of three independent experiments
Procedure: (§1) Fresh human red blood cells were obtained from healthy donors and collected in a sterile blood collecting vessel covered with sodium citrate (1:9) as the anticoagulating agent. Rat red blood cells were collected from the abdominal aorta in sterile blood-collecting vessels coated with sodium citrate (1:4) after the SD rats were anaesthetized with isoflurane. Then, the cells were washed three times with phosphate-buffered saline via centrifugation (1000× g, 4 °C, 5 min) and prepared in a sterile 96-well polypropylene plate to achieve a final concentration of 5% (v/v). Twofold dilutions of the peptides were prepared in PBS to 100 μL and mixed with an equal volume of HRBCs/RRBCs suspension to final peptide concentrations ranging from 10 to 320 μg/mL. After coincubation at 37 °C for 1 h, the plate was centrifuged (2000× g, 4 °C, 20 min), and 100 μL of supernatant was taken for optical density measurements at 540 nm using a microtiter plate reader (SpectraMax 190). The HRBCs/RRBCs were assayed with PBS (blank) or 1% Triton X-100 (positive control) to represent 0% and 100% hemolysis, respectively. The percent hemolysis was calculated according to the following equation: Hemolysis Rate (%) = 100% × (Amastoparans − Ablank)/(ATriton X-100 − Ablank). Three independent experiments were performed, and the mean hemolysis rate at each dose was used to calculate the EC50 in Sigmaplot software.
(§2) Statistical analysis was performed with GraphPad Prism software (version 5.0, San Diego, CA, USA). A two-tailed Student’s t-test was used to calculate the statistical probability in this study. Differences in the data were considered to be statistically significant when the p value was equal to or less than 0.05. The curve of hemolysis induced by wasp mastoparans was generated in SigmaPlot 12.5 software, and the EC50 was calculated according to the equation (Four Parameter Logistic Curve): y = min + (max − min)/(1 + (x/EC50)^−Hillslope). The heat map of hemolytic activity of mastoparan peptide was analysed in R software which is based on the value of log2(EC50).

[2] = test system: rat red blood cells (RRBCs); assay: Hemolytic assay on rat red blood cells; format: cell-based, SD rats; details: rat red blood cells 5% (v/v) in PBS, 37 °C 1 h, OD 540 nm; for EC50: four-parameter logistic fit of mean of three independent experiments, '-' = hemolytic activity too low to calculate the EC50; for RRBC Hemolysis (hemolysis rate at 320 μg/mL): peptide 320 μg/mL (highest dose), PBS = 0%, mean of three independent experiments
Procedure: as §1, §2

[3] = Table 2 series, read-out: HRBC EC50 (hemolytic activity), Protopolybia-MPIII and mutants
[4] = Table 2 series, read-out: RRBC EC50 (hemolytic activity), Protopolybia-MPIII and mutants
[5] = peptide 10-320 μg/mL twofold dilutions, 1% Triton X-100 = 100%, read-out: HRBC EC50 (hemolytic activity)
[6] = peptide 10-320 μg/mL twofold dilutions, 1% Triton X-100 = 100%, read-out: RRBC EC50 (hemolytic activity)

Compound | EC50 [1, 3] [µM] | EC50 [2, 4] [µM] | HRBC Hemolysis (hemolysis rate at 320 μg/mL) ([1]; 1% Triton X-100 = 100%) [%] | EC50 [1, 5] | RRBC Hemolysis (hemolysis rate at 320 μg/mL) ([2]; 1% Triton X-100 = 100%) [%] | EC50 [2, 6] [µM]
INWLKLGKAVIAIL-NH2 [Protopolybia-MPIII-10] | 11.3 ± 1.2 | 11.7 ± 1 | – | – | – | –
INWLKLGKQILGAL-NH2 [Pm-R3] | – | – | 100 | 32.3 ± 1.7 µM | 100 | 73.5 ± 5.1
INWLKLGKAVSDAL-NH2 [Protopolybia-MPIII-2] | 673 ± 189 | 639.5 ± 1.6 | – | – | – | –
INLKALLAVAKKIL-NH2 [Mastoparan-C] | – | – | 100 | – | 100 | 64.4 ± 10.7
CC[C@H](C)[C@H](N)C(=O)N[C@@H](CC(N)=O)C(=O)N[C@@H](CC(C)C)C(=O)N[C@@H](CCCCN)C(=O)N[C@@H](C)C(=O)N[C@@H](CC(C)C)C(=O)N[C@@H](C)C(=O)N[C@@H](C)C(=O)N[C@@H](CC(C)C)C(=O)N[C@@H](C)C(=O)N[C@@H](CCCCN)C(=O)N[C@@H](CCCCN)C(=O)N[C@H](C(=O)N[C@@H](CC(C)C)C(N)=O)[C@@H](C)CC [Mastoparan (L)] | – | – | 100 | 82.9 ± 3.8 µM | 41 | 242 ± 2.6
GRILSFIKGLAEHL-NH2 [EMP-OD] | – | – | 2 | – | 49 | 190 ± 32
INWKALLDAAKKVL-NH2 [Protonectarina-MP] | – | – | 100 | – | 35 | 326 ± 26.4
INWLKLGKKVIDAL-NH2 [Protopolybia-MPIII-1] | 176.4 ± 1 | 158 ± 2.3 | – | – | – | –
INWKAILQRIKKML-NH2 [Agelaia-MPII] | – | – | 100 | 44.8 ± 10.4 µM | 97 | 62.1 ± 3.8
INWKKMAATALKMI-NH2 [Parapolybia-MP] | – | – | 32 | ≥ 400 µM and > 400 µM and 306 µM | 22 | –
INWLKLGKKILGAI-NH2 [Pm-R1] | – | – | 100 | 72 ± 8.5 µM | 92 | 105 ± 2.2
INWKKIKSIIKAAMN-NH2 [Mastoparan-V1] | – | – | 9 | – | 16 | –
LNFKALAALAKKIL-NH2 [Pm-R2] | – | – | 66 | 166 ± 8 µM | 34 | 250 ± 9.9
INWKAIIEAAKQAL-NH2 [Protopolybia-MPII] | – | – | 13 | > 400 µM | 24 | > 400
INLLKIAKGIIKSL-NH2 [EMP-AF] | – | – | 100 | 111 ± 9.8 µM | 100 | 122 ± 13.1
FDVMGIIKKIASAL-NH2 [EMP-EF] | – | – | 100 | 125 ± 20.6 µM | 48 | 216.8 ± 1.6
INLKVFAALVKKFL-NH2 [Mastoparan-T1] | – | – | 100 | 30.8 ± 1.6 µM | 87 | 22.7 ± 7.1
INWHDIAIKNIDAL-NH2 [Polybia-MP V] | – | – | 0 | > 400 µM | 0 | > 400
INWLKLGKKVIAAL-NH2 [Protopolybia-MPIII-6] | 110 ± 2.5 | 108 ± 3.2 | – | – | – | –
INWLKLGKKVIAIL-NH2 [Protopolybia-MPIII-12] | 43.9 ± 3.6 | 55.2 ± 2.2 | – | – | – | –
INWKKIKSLIKAAMS-NH2 [Mastoparan-V2] | – | – | 15 | – | 52 | 182 ± 3.6

— paper PMC10611374, “Characterization of the Hemolytic Activity of Mastoparan Family Peptides from Wasp Venoms” (Toxins, 2023)
